System: LPS-induced release of TNFα from PBMCs from patients suffering from rheumatoid arthritis
Test: ELISA-based TNFα release assay, PBMCs from RA-patients
Assay type: cell-based
Conditions: Homo sapiens, PBMC; chimeric antibodies (CHO) 1 μg/ml; Batimastat 10 μM; LPS 1 ng/ml, 1.5 hours
Description: In contrast to Example 32, where the inhibitory effects of the antibodies of the present disclosure on LPS-induced release of endogenous TNFα from primary human material obtained from healthy donors using peripheral blood mononuclear cells (PBMCs) were tested, this analysis was conducted to analyze the inhibitory effects of the antibodies of the present disclosure on LPS-induced release of endogenous TNFα from primary human material obtained from patients suffering from rheumatoid arthritis (RA-patients).
In brief, on day 1, Nunc black MaxiSorp® 96-well plates (Thermo Fisher Scientific, USA) were coated overnight with 100 μl per well of mouse anti-human TNFα capture antibody (provided as part of the DuoSet ELISA kit) at 4 μg/ml TBS at 4° C. On day 2, the capture antibody solution was removed and MaxiSorp® plates were blocked with 300 μl per well of TBS, 1% BSA at room temperature for 3 hours. […] Using an infinite M1000 (Tecan Group, Switzerland) microplate reader, the fluorescence of each well was collected at an excitation wavelength of 435 nm and an emission wavelength of 555 nm.

CNC(=O)[C@H](Cc1ccccc1)NC(=O)[C@H](CC(C)C)[C@H](CSc1cccs1)C(=O)NO [Batimastat]
inhibition at 10 µM: 99.9%

Reference: patent US20240174744A1, “METHODS OF TREATMENT USING PROTEIN BINDERS TO IRHOM2 EPITOPES” (SCIRHOM GMBH, priority 2021, published 2024)
